Assay results published in patent publication US9062351B2, “Diagnostic, prognostic and therapeutic uses of long non-coding RNAs for cancer and regenerative medicine” (The Board of Trustees of the Leland Stanford Junior …, priority 2011, dated 2015).

Columns and labels:
[1] = tested on: human fetal lung fibroblasts (FL3); experiment: Quantitative RT-PCR of lncRNA expression, doxorubicin time course; assay type: cell-based; settings: 24 hour time course
Description: Total RNA was extracted from cells using the TRIzol reagent (Invitrogen) and the RNeasy Mini Kit (Qiagen), and genomic DNA was eliminated using TURBO DNA-free (Ambion). RT-PCR using 50-250 ng of total RNA was performed using the One-Step RT-PCR Master Mix (Applied Biosystems) using TaqMan Gene Expression Assays and normalized to GAPDH. Strand-specific RT-PCR for PANDA was performed using the One-Step RT-PCR Master Mix SYBR Green (Stratagene)).
A panel of TaqMan custom ncRNA assays was developed targeting 60 of the 219 new transcribed regions using the ‘single-exon’ design mode. The transcript specificity and genome specificity of all TaqMan assays were verified using a position-specific alignment matrix to predict potential cross reactivity between designed assays and genome-wide nontarget transcripts or genomic sequences. […]
Our co-expression maps predicted associations of several lncRNAs with DNA damage response pathways (FIG. 3C and FIG. 11). […] In order to confirm whether these lncRNAs may be responsive to DNA damage, we measured the expression changes of 60 lncRNAs predicted in the DNA damage pathway (as well as upst:CDKN1A:−800) by quantitative RT-PCR in human fetal lung fibroblasts treated with doxorubicin over a 24 hour time course. […]

[2] = tested on: human fetal lung fibroblasts; experiment: Custom tiling array RNA hybridization (ncRNA expression); assay type: cell-based; settings: doxorubicin-treated human fetal lung fibroblasts; tiling array and qRT-PCR; of 216 ncRNAs
Source text: A custom tiling array (Roche NimbleGen) was designed at 5 bp resolution across 25 kb of the 9p21 region (which encompasses CDKN2A, P14ARF and CDKN2B), as well as from 10 kb upstream to 2 kb downstream of each TSS from 53 other cell-cycle genes, including those encoding cyclins, CDKs and CDKIs (Table 1). In addition, the HOXA and HOXD loci were placed on the array as a control. Briefly, RNA was amplified (MessageAmp Kit, Ambion), reverse transcribed (RETROscript Kit, Ambion), labeled and hybridized according to the standard NimbleGen protocol.
Robust multichip average normalized single channel data from each array were subjected to peak calling using the NimbleScan program (Roche NimbleGen) with a window size of 50. Peaks with a peak score greater than ten were considered significant transcriptional units. […]
A peak calling algorithm searched for statistically significant signals above background and detected contiguous regions (peaks) of at least 50 bp. […] Averaging the signal intensity across all probes in a peak produced a quantitative estimate of transcript abundance. Despite possible 3′ bias caused by polyadenylated RNA selection, our procedure detected exon 1 transcription from the majority of cell-cycle coding genes (41 of the 56), showing that this custom tiling array can detect previously reported transcribed regions. […]

[3] = tested on: human fetal lung fibroblasts (FL3); experiment: TUNEL assay; assay type: cell-based; settings: FL3 cells exposed to control siRNA
Description: TUNEL assays were performed using the in situ Cell Death Detection Kit, TMR Red (Roche). Human fetal lung fibroblasts were cultured on chamber slides (Lab-Tek), treated with 200 ng/ml doxorubicin (Sigma) for 24 hours, fixed with methanol at −20° C. for 10 minutes and incubated with the TUNEL labeling mixture for 1 hour at 37° C. Slides were then washed with PBS and mounted in Prolong Gold antifade reagent with DAPI (Invitrogen) and imaged at 20× magnification.

[4] = molecular target: T1, p21 (Homo sapiens, UniProt P38936); experiment: RNAse mediated RNA chromatography; assay type: binding; settings: lysates of doxorubicin-treated human fibroblasts
T1 construct: RNA chromatography of PANDA from doxorubicin-treated FL3 cell lysates; endogenous in cells; host or cells: doxorubicin-treated human fetal lung fibroblasts (FL3)
T1 sequence (P38936 whole entry): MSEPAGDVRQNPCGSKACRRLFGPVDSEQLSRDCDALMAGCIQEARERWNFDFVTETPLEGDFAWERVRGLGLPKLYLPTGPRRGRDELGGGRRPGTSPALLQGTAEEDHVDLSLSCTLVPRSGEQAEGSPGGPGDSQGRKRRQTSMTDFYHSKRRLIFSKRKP
Description: (§1) RNAse mediated RNA chromatography (Michlewski et al. (2010) RNA 16:1673-1678, herein incorporated by reference in its entirety) was performed as previously described with the following modifications: 6 pmols of RNA (PANDA or a 1.2-kb fragment of LacZ) were used per reaction. RNA was folded (90° C. for 2 minutes, ice for 2 minutes), supplied with RNA structure buffer (Ambion) and shifted to room temperature (22-25° C.) for 20 minutes before conjugation to beads. RNAse digestion was performed with 5 μl of RNase A/T1 cocktail (Ambion) and 2 μl of RNase V1 (Ambion). Cellular lysates were prepared as follows: 10 million doxorubicin treated cells (16 hours) were incubated in 200 μl PBS, 600 μl H20 and 200 μl nuclear lysis buffer (1.28 M sucrose; 40 mM Tris-HCl pH 7.5; 20 mM MgCl2; 4% Triton X-100) on ice for 20 minutes. Nuclei were pelleted by centrifugation at 2,500 g for 15 minutes. The nuclear pellet was resuspended in 1 ml RIP buffer (150 mM KCl, 25 mM Tris pH 7.4, 0.5 mM DTT, 0.5% NP40, 1 mM PMSF and protease inhibitor (Roche Complete Protease Inhibitor Cocktail Tablets)). Resuspended nuclei were sheared using a motorized douncer for 5 seconds. Nuclear membrane and debris were pelleted by centrifugation at 18,000 g for 10 minutes.
(§2) Core promoters of cell death genes downstream of p53 are distinguished from other p53 target genes by the binding site for the transcription factor NF-YA (Morachis et al. (2010) Genes Dev. 24:135-147), and we reasoned that PANDA may affect NF-YA function. […] NF-YA is a nuclear transcription factor that activates the p53-responsive promoter of FAS upon DNA damage (Morachis et al. (2010) Genes Dev. 24:135-147). […] Thus, PANDA binding to NF-YA may evict or prevent NF-YA binding to chromatin. […] CDKN1A mRNA produces p21 to mediate arrest, whereas PANDA impedes NF-YA activation of apoptotic gene expression program (FIG. 8).

[5] = molecular target: T2, NF-YA (Homo sapiens, UniProt P23511); experiment: RNAse mediated RNA chromatography; assay type: binding; settings: in vitro transcribed RNA; lysates of doxorubicin-treated human fibroblasts
T2 construct: RNA chromatography of PANDA from doxorubicin-treated FL3 cell lysates; endogenous in cells; host or cells: doxorubicin-treated human fetal lung fibroblasts (FL3)
T2 sequence (P23511 whole entry): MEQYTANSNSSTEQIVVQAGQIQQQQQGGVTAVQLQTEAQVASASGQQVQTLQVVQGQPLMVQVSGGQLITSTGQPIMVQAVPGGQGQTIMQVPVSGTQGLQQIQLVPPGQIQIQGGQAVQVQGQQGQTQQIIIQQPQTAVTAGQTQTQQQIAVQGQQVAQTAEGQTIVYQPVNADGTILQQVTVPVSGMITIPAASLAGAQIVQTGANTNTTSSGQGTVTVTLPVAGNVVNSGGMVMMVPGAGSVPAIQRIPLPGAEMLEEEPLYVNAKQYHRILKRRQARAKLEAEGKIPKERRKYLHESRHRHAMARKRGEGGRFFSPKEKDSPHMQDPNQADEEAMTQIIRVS
Description: as §1, §2

[6] = molecular target: T3, LSD1 (Homo sapiens, UniProt O60341); experiment: RNAse mediated RNA chromatography; assay type: binding; settings: lysates of doxorubicin-treated human fibroblasts
T3 construct: RNA chromatography of PANDA from doxorubicin-treated FL3 cell lysates; endogenous in cells; host or cells: doxorubicin-treated human fetal lung fibroblasts (FL3)
Description: as §1, §2

[7] = molecular target: T4, EZH2 (Homo sapiens, UniProt Q15910); experiment: RNAse mediated RNA chromatography; assay type: binding; settings: lysates of doxorubicin-treated human fibroblasts
T4 construct: RNA chromatography of PANDA from doxorubicin-treated FL3 cell lysates; endogenous in cells; host or cells: doxorubicin-treated human fetal lung fibroblasts (FL3)
T4 sequence (Q15910 whole entry): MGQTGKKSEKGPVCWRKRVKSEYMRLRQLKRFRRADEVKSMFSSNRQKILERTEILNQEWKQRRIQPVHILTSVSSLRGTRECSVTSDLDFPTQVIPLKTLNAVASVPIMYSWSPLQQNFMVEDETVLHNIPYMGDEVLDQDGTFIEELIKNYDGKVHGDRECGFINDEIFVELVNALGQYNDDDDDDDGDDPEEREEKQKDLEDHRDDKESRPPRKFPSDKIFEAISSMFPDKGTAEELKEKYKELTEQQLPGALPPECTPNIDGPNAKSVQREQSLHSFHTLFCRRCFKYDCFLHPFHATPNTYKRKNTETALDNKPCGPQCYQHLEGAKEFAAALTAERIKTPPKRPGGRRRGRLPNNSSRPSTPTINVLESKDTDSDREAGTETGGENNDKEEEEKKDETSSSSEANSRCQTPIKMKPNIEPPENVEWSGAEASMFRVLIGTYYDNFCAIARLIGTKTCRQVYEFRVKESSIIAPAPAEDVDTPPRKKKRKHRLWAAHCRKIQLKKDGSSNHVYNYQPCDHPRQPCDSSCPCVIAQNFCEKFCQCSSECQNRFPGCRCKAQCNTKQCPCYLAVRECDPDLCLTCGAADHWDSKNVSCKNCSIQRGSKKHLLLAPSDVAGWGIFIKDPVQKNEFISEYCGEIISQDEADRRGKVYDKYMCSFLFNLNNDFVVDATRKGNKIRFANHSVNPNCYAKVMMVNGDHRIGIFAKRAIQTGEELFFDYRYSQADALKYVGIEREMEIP
T4 sequence (O75530 whole entry partner): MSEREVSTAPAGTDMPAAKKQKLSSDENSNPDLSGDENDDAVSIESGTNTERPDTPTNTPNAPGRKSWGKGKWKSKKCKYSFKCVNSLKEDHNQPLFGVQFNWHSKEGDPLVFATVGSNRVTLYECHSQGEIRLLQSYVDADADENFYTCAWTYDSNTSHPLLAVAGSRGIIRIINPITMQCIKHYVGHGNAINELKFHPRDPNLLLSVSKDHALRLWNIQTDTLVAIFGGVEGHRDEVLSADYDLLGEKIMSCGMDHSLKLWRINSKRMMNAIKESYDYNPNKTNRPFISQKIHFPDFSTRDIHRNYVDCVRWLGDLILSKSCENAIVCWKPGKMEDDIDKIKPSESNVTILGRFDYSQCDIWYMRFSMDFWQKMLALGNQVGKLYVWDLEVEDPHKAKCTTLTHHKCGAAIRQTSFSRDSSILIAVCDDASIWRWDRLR
T4 sequence (Q15022 whole entry partner): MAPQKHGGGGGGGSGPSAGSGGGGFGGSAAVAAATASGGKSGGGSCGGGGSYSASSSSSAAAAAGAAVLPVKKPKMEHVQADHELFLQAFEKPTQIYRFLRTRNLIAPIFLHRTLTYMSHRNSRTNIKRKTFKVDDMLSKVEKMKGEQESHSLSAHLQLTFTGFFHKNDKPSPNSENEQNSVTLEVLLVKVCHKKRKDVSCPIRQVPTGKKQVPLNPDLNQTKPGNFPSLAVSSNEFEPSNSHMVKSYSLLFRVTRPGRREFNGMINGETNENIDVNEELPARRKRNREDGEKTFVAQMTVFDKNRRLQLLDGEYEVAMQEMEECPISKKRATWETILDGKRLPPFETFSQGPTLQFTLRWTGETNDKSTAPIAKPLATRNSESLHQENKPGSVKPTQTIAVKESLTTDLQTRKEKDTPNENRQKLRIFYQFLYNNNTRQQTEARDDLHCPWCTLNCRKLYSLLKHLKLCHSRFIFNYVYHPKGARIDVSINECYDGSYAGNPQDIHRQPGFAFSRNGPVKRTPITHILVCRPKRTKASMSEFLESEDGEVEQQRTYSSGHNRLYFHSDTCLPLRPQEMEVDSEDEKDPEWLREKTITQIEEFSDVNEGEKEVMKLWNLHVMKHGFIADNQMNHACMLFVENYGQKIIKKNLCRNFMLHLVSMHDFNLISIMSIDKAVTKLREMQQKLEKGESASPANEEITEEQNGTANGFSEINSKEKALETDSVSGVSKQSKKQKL
Description: as §1, §2

[8] = molecular target: T2, NF-YA; experiment: RNA immunoprecipitation of NF-YA; assay type: binding; settings: doxorubicin-treated primary human lung fibroblasts, qRT-PCR
Description: Ten million cells were treated with 200 ng/ml doxorubicin for 16 hours, trypsinized and crosslinked with 1% formaldehyde for 10 minutes, followed by the addition of 0.125 M glycine for 5 minutes. After two PBS washes, cells were lysed with 2× volume of Buffer A (10 mM HEPES pH 7.5, 1.5 mM MgCl2, 10 mM KCl, 0.5 mM DTT, 1 mM PMSF) for 15 minutes on ice at 150 r.p.m. NP-40 was added to a final concentration of 0.25% for 5 minutes on ice. Lysates were centrifuged for 3 minutes at 2,000 r.p.m., and the supernatant (cytosol) was collected. Next, an equal volume of Buffer C as that used of Buffer A was added to the pellet for 20 minutes with frequent vortex (20 mM HEPES pH 7.5, 10% glycerol, 0.42 M KCl, 4 mM MgCl2, 0.5 mM DTT, and 1 mM PMSF). Nuclear lysates were dounced for 5 seconds using a motorized pestle and sonicated for 7 minutes using a Diagenode Sonicator (30 seconds on, 30 seconds off, power setting H). Nuclear and cytoplasmic lysates were combined and centrifuged for 15 minutes at 13,000 r.p.m. Supernatants were transferred into micro spin columns (Pierce 89879), and 2 μg of antibody was added and incubated overnight. We washed 10 μl of Protein A/G UltraLink Resin (Pierce 53132) three times with RIP wash buffer (50 mM TrisHcl pH 7.9, 10% glycerol, 100 mM KCl, 5 mM MgCl2, 10 mM B-me and 0.1% NP-40) and added it to the immunoprecipitation reaction for 1 hour at 4° C. […]

Molecule	expression of lncRNAs surrounding the CDKN1A TSS [1]	induction of Upst:CDKN1A:−4,845 (PANDA) upon DNA damage [1]	ncRNAs with at least two-fold change [2]	apoptosis as measured by TUNEL [3]	retrieval of p21 [4]	retrieval of NF-YA from cellular lysates [5]	retrieval of LSD1 [6]	retrieval of EZH2 [7]	retrieval of endogenous PANDA by immunoprecipitation of NF-YA [8]
COc1cccc2c1C(=O)c1c(O)c3c(c(O)c1C2=O)C[C@@](O)(C(=O)CO)C[C@@H]3O[C@H]1C[C@H](N)[C@H](O)[C@H](C)O1 [doxorubicin]	all five of the tested lncRNAs surrounding the CDKN1A TSS were induced	up to 40 fold	12 of the 216	little to no apoptosis					
PANDA: P21-Associated NcRNA, DNA damage Activated; 1.5-kb long non-coding RNA					did not retrieve	specifically retrieved	did not retrieve	did not retrieve	specifically retrieved
